Measured values from patent publication US12636250B2, “Microneedle array patches (MAPs), systems, and methods for manufacturing and using same” (Terrestrial Bio, Inc., priority 2024, dated 2026).
“Also recorded” adds a separate entry of the source.

Experiments:
[1] = Mold dissection for tip length and shell length (RTM-209); assay type: physicochemical; conditions: comparison between GLP-1 tip formulations
Description: Mold Dissection for Tip Length (RTM-209): The mold dissection method uses magnified images of sectioned molds to obtain measurements and morphology of the dried tips in the molds. After tip printing and drying, a mold is cross-sectioned with a razor blade in between rows of needles. The dried tips are imaged within the needle cavities using a microscope. The tip overall length and shell length are measured by image processing. The image scale is calibrated using a stage micrometer, and lengths in micrometers are calculated from the lengths measured in pixels. The shell length as a portion of overall length is an indication of consolidation. Minimal shell length, corresponding to maximum consolidation, is preferred.

[2] = Microneedle mechanical strength, Instron compression (crush) test (TM-404); assay type: physicochemical; conditions: for Tip strength (comparison in words): comparison between GLP-1 tip formulations

| SMILES | Tip length / shell length / Tip consolidation (comparison in words) [1] | Tip strength (comparison in words) [2] | strength per needle ([2]; GLP-086, higher (3%) concentration of Proline vs feasibility (control) formulation) [N/needle] |
| --- | --- | --- | --- |
| [Cl-].[Cl-].[Mg+2] [MgCl2] | also improved Tip consolidation |  |  |
| Cl.NC(CO)(CO)CO [Tris-HCl] | comparable to MOPS in terms of Tip length and strength | comparable to MOPS in terms of Tip length and strength |  |
| [Cl-].[Na+] [NaCl] | led to better consolidation of the Tips; also recorded: significantly reduced the shell length and improved the % consolidation of the Tip | comparable |  |
| O=C(O)[C@@H]1CCCN1 [Proline] | did improve Tip consolidation | significantly improves the mechanical strength of GLP-1 containing needles | > 0.6 |
